{
  "source": "patent US12005092B2",
  "about": "“Herbal composition for breast cancer prevention” (priority 2021, dated 2024)",
  "tested_on": "MCF-7 cells",
  "experiment": "MCF-7 cell viability, PrestoBlue Cell Viability Reagent",
  "type": "cell-based, human",
  "details": "individual ingredients, MCF-7, 2 mg/0.2 ml",
  "protocol": "In order to assess this activity, a well-established line of breast cancer cells used in cancer research was selected. MCF-7 is a widely studied cancer cell line derived from breast adenocarcinoma, it was proven to be a suitable model cell line for breast cancer investigations worldwide, including those regarding anticancer drugs.\nThe cells were cultured with growth medium and seeded in two 96 well plates incubated at 37 Celsius. The HCBCP solution was prepared by dissolving the powder in DPBS as per Table 1, below.\nThe obtained solutions were sterilized by 0.22-micron filtration.\nAn amount of 0.2 ml was applied in each test tube providing 2 mg of HCBCP. […]\nAfter incubation period of 24 and 48 hours, cell viability was measured using PrestoBlue™ Cell Viability Reagent, according to manufacturer instructions.\nFluorescence was detected at excitation wavelength of 560 nm and an emission of 590 nm, using TECAN SPARK 10M microplate reader, at 24 and 48 hours after application. The fluorescence data is expressed as percentage of cell viability (%) compared to vehicle control.\nPercentage of cell viability was calculated using the following formula: [(fluorescence of treated cells—mean background fluorescence)/(fluorescence of cells with vehicle control—mean background fluorescence)]×100, at 24 and 48 Hours after Application. […]",
  "note": "Where “and” joins values, the source holds several entries; their conditions need not be identical. Identical values can stand only once.",
  "data": [
    {"smiles": "O=c1c(O)c(-c2ccc(O)c(O)c2)oc2cc(O)cc(O)c12", "note": "[BF 2 Q, Quercetin]", "values": [
      {"measurement": "Mean cell viability (%)", "setting": "24 h (Table 3)", "result": 42.10, "unit": "%"},
      {"measurement": "Cell Viability (%)", "setting": "24 h, single replicates (Table 3)", "result": "44.43% and 44.39% and 40.25% and 39.33%"}
    ]}
  ]
}
